Source: ChEMBL document CHEMBL5465560, “Selectivity Literature for EUbOPEN Chemogenomic Library” (2024)
One block for each molecule: values may come before it.

Experiments:
[1] = target: Histone-lysine N-methyltransferase, H3 lysine-36 specific (Homo sapiens) (UniProt Q96L73); test: Selectivity interaction (Methyltransferase screen (radiometric assays, panel of 8 PRMTs, 21 protein lysine methyltransferases, 3 DNA methyltransferases, and one RNA methyltransferase)) EUB0000272b NSD1; details: at 1 µM
Histone-lysine N-methyltransferase, H3 lysine-36 specific (Homo sapiens), sequence (Q96L73 whole entry): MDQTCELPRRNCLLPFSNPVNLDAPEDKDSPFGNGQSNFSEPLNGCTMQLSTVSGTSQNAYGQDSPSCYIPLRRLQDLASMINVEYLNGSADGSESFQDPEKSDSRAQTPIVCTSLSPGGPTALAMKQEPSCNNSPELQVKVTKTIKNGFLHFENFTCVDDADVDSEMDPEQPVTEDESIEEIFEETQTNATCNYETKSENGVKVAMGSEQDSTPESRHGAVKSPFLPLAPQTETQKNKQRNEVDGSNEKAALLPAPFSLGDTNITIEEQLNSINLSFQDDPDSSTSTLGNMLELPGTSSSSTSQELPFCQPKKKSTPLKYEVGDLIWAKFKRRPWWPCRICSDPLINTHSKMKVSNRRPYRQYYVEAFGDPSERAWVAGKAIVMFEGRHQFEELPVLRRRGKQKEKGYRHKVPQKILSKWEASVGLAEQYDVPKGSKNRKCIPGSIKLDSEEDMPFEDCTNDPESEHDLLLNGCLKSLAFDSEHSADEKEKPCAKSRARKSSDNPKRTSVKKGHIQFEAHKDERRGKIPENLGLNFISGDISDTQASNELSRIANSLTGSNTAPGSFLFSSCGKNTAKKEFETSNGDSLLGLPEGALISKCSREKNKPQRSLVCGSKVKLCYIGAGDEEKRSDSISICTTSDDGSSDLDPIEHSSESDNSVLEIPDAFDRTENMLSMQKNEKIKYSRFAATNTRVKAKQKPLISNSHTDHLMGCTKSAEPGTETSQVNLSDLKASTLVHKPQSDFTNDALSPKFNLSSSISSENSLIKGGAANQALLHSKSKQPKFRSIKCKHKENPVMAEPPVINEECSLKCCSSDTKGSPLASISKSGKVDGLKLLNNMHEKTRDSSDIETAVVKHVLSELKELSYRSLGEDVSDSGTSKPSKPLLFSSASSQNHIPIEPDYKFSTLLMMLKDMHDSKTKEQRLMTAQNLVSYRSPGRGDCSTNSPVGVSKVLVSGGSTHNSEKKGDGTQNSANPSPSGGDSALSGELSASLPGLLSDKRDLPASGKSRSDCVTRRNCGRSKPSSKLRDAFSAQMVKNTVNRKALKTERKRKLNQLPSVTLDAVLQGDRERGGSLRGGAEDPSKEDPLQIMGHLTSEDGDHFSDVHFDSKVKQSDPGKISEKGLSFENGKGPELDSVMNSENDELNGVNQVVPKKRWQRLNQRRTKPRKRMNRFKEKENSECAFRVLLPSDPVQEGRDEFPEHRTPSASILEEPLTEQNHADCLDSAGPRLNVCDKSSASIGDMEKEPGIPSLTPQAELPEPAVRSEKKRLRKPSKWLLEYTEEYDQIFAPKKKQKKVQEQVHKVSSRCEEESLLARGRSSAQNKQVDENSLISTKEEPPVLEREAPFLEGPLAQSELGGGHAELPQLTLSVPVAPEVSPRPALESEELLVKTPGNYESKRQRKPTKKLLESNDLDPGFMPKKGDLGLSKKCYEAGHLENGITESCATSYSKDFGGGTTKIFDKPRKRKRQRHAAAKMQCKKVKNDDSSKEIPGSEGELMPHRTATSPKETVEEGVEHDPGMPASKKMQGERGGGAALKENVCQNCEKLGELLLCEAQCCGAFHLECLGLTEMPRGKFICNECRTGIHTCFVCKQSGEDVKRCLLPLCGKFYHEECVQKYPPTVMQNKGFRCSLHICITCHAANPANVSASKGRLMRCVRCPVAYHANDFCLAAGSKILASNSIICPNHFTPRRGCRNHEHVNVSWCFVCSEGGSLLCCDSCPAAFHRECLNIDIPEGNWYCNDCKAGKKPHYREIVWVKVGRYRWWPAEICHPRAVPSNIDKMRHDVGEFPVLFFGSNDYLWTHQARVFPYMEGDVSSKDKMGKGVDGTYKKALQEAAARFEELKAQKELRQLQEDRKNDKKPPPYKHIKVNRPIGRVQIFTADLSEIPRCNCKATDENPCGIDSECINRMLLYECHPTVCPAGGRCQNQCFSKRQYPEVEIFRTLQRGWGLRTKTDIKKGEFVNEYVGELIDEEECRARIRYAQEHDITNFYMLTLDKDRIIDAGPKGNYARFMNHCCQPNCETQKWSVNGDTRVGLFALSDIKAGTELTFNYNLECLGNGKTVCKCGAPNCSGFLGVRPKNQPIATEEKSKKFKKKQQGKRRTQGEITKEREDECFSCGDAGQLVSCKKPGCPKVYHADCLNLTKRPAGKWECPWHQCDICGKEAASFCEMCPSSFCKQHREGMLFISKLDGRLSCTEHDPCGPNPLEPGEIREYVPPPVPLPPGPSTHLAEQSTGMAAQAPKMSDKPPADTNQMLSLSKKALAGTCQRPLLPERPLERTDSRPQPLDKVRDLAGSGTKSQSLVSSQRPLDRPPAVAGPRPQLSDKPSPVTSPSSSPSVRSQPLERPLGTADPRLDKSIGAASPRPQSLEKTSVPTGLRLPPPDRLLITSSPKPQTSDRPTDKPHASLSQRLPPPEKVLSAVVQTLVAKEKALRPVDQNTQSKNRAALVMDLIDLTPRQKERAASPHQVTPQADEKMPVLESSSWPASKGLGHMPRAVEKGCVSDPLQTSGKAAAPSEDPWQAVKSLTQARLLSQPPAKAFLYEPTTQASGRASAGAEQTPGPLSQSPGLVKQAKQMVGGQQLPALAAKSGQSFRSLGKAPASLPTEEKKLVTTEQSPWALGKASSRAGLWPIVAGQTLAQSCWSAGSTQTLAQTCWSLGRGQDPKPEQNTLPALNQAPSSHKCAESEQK

[2] = target: Serine/threonine-protein kinase SIK1 (Homo sapiens) (UniProt P57059); test: Selectivity interaction (Upstate Kinase Profiler service (Millipore)) EUB0000056c SIK1; details: at 1 µM
Serine/threonine-protein kinase SIK1 (Homo sapiens), sequence (P57059 whole entry): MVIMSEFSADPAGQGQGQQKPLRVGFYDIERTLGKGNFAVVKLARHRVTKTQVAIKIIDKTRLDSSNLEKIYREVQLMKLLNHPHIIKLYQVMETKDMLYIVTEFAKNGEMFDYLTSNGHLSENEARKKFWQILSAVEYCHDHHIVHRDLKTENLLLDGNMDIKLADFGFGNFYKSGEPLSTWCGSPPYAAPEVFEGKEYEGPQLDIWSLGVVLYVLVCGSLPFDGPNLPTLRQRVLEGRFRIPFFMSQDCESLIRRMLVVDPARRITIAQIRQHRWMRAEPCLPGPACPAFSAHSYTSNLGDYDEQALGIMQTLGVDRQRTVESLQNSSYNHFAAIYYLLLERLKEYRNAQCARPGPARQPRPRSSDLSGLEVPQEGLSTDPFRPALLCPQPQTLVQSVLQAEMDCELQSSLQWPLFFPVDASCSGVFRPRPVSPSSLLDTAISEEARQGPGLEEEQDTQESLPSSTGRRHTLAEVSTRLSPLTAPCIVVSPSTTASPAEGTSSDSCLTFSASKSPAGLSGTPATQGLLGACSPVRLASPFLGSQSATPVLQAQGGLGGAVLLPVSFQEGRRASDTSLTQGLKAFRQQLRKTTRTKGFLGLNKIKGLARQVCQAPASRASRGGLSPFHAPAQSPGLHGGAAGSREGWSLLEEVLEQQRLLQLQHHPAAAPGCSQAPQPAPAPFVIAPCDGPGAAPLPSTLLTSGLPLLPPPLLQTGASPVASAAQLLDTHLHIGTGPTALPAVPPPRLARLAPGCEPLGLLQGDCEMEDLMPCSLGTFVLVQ

[3] = target: Serine/threonine-protein kinase 32C (Homo sapiens) (UniProt Q86UX6); test: Selectivity interaction (KinomeScan (DiscoverX)) EUB0000655a STK32C; details: at 10 µM
Serine/threonine-protein kinase 32C (Homo sapiens), sequence (Q86UX6 whole entry): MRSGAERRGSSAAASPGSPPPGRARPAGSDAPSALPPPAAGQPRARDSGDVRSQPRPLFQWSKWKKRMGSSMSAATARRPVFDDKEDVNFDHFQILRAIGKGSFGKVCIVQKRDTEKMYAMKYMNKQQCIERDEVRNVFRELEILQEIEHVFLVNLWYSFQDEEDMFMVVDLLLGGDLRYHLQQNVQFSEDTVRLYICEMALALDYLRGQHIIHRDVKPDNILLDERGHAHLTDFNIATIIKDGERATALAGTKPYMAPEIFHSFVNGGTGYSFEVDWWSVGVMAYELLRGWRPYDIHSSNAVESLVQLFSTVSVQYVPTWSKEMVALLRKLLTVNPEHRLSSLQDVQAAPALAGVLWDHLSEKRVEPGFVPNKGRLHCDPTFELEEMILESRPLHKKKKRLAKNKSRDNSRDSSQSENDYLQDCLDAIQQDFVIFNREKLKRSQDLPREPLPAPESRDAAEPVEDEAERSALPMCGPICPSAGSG

[4] = target: Tyrosine-protein kinase JAK1 (Homo sapiens, UniProt P23458); test: Selectivity interaction (KinomeScan (DiscoverX)) EUB0000045b JAK1; details: at 1 µM
[5] = target: T1, Eukaryotic elongation factor 2 kinase (Homo sapiens) (UniProt O00418); test: Selectivity interaction (Kinase panel (literature)) EUB0001199aCl EEF2K; details: at 1 µM
T1 sequence (whole entry): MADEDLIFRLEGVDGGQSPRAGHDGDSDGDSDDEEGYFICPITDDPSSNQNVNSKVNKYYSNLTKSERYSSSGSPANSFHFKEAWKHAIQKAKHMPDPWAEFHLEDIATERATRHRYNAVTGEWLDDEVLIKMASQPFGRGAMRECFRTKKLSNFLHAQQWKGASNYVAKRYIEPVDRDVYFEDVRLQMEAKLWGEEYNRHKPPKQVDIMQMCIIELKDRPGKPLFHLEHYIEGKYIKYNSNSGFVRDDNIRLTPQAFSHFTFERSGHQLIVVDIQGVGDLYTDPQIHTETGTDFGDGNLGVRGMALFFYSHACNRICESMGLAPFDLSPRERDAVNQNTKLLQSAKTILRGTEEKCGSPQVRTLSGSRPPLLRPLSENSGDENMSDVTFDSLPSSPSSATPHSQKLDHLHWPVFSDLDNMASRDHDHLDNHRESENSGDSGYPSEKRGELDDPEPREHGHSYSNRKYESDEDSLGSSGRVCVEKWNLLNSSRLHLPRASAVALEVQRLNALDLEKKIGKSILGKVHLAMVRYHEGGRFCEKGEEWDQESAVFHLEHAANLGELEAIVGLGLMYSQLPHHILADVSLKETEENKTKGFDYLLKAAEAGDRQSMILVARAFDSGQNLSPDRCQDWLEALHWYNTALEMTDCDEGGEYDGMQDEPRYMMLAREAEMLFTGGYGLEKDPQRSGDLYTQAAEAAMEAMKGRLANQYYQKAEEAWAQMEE

[6] = target: Tyrosine-protein kinase JAK2 (Homo sapiens, UniProt O60674); test: Selectivity interaction (Ambit KINOMEscan and KiNATiv profiling in Jurkat cells) EUB0000090b JAK2; assay type: cell-based; details: at 1 µM
Tyrosine-protein kinase JAK2, sequence (O60674 whole entry): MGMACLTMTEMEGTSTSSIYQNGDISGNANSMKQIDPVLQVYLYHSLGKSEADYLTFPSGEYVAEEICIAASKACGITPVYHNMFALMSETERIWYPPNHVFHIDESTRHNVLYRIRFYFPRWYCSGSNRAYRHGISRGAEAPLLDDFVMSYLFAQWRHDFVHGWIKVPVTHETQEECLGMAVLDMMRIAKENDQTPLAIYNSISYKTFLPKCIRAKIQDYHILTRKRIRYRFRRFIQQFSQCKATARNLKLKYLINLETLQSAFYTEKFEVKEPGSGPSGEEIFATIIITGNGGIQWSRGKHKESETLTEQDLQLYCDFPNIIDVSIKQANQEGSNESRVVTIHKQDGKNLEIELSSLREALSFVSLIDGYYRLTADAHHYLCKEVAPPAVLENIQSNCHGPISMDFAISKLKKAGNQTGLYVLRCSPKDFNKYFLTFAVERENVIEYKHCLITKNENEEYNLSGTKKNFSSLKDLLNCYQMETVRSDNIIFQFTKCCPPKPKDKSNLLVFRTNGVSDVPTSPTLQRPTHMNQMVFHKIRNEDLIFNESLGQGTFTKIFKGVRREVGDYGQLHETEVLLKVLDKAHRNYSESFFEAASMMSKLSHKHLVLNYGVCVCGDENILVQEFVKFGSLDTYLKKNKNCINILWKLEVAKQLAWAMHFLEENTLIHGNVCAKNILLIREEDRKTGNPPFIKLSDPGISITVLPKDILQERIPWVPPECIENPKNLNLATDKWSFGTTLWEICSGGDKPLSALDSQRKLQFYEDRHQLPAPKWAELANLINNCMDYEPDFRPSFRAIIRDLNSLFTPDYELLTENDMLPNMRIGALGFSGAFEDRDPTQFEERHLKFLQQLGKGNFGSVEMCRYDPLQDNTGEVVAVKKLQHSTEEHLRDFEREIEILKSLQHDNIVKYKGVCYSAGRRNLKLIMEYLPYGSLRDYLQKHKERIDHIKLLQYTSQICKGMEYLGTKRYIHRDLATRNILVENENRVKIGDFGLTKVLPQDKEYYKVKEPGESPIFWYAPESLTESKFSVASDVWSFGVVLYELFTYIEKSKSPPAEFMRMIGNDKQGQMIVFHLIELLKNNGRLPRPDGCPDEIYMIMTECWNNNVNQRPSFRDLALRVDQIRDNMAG

[7] = target: T2, Histone-lysine N-methyltransferase NSD3 (Homo sapiens) (UniProt Q9BZ95); details: at 10 µM
T2 sequence (whole entry): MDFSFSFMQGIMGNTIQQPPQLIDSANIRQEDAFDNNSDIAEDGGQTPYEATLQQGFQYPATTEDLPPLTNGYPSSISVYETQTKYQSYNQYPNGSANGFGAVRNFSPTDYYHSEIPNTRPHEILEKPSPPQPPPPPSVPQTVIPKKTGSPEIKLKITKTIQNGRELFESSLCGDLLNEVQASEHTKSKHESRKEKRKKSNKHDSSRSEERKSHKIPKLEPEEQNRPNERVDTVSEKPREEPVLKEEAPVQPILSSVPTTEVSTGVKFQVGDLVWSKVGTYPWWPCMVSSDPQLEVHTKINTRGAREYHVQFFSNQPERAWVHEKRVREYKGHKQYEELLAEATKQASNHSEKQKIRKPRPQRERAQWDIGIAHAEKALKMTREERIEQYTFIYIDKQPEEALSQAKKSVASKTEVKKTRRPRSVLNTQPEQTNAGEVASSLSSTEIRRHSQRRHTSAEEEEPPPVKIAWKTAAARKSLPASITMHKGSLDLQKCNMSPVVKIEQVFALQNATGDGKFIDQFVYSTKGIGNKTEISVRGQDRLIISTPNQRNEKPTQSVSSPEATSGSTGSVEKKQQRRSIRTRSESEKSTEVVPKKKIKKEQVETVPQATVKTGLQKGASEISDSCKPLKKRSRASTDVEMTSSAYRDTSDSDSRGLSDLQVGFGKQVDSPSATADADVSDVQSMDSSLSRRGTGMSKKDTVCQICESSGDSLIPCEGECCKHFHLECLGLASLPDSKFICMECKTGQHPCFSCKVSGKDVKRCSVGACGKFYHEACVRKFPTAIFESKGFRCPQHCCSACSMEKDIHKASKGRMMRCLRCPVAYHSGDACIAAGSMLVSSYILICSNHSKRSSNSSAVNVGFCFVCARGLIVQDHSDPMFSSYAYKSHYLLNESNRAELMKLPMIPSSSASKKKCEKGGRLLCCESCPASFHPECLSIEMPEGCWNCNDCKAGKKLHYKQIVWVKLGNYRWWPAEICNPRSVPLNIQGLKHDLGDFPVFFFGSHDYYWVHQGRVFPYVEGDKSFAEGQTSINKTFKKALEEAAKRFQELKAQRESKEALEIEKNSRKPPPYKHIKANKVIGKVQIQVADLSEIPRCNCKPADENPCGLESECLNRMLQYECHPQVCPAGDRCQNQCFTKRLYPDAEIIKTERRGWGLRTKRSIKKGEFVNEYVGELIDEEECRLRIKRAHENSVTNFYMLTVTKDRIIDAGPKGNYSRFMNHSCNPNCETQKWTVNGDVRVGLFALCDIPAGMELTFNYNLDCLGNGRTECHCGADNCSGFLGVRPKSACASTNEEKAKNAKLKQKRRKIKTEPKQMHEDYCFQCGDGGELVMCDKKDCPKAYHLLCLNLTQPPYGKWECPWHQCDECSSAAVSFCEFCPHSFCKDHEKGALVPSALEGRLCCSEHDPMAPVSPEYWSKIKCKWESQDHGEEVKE

SMILES: CN(C)CCOc1ccc(-c2nc(-c3ccncc3)c(-c3ccc4c(c3)CC/C4=N\O)[nH]2)cc1
% of control [3]: 100%

SMILES: C=CC(=O)Nc1cc(-n2c(=O)ccc3cnc4ccc(-c5ccc(NS(C)(=O)=O)cc5)cc4c32)ccc1C
% of control [4]: 99%

SMILES: CN(C)C/C=C/C(=O)Nc1ccc(C(=O)N2CCCC(Nc3ncc(Cl)c(-c4c[nH]c5ccccc45)n3)C2)cc1 (configuration not stated)
% of control [6]: 89%

SMILES: CNCCN1CCC(c2cc(CN(C)C(=O)c3cccc(Oc4ccccc4)c3)ccn2)CC1
% activity [7]: > 90%

Second part, the molecule after the results:

% of activity [1]: 97.7%
SMILES: Cc1cc(C)cc([C@H]2c3cc(C)ccc3NC(=O)CN2C(=O)c2ccc(Br)s2)c1

% of inhibition [2]: 4%
SMILES: Cc1ccc(-c2ccc3c(ccc4sc5c(c43)NC[C@@H](C)NC5=O)n2)cn1

% of inhibition [5]: -5%
SMILES: CN1Cc2nccc(-c3cn(C)nc3-c3ccc(F)cc3)c2C1=O
